In patent US4798892A, “2-hydroxypropylamine heteroaryl ester derivatives” (priority 1986, dated 1989):
Where “and” joins values, the source holds several entries; their conditions need not be identical. Identical values can stand only once. Counter-ions that a name gives are not always drawn. Like-named read-outs stand apart in the source and are kept apart here. Blank lines part the entries; values can stand above or below the compound they belong to.

Key:
[1] = target: T1, beta adrenergic receptor (guinea pig right atria) (Cavia porcellus, UniProt H0W3H1); assay: Beta-blocking activity in vitro, guinea pig right atria (blockade of isoproterenol rate response)
T1 construct: guinea pig right atria and guinea pig tracheal strips mounted in a tissue bath; from tissue; host or cells: guinea pig right atria, spontaneously beating

[2] = system: beta adrenergic receptor (heart rate response to isoproterenol); assay: Duration and potency of beta-blocking action in vivo, 3-hour infusion in pentobarbital-anesthetized dogs; design: species or system dog; details: for Recovery Time 80% / Potency / % I (Percent inhibition of heart rate response to isoproterenol) / Recovery Time 50%: Table II; for Recovery Time 80% / Recovery Time 50%: after termination of 3-hour infusion; for Potency: infusion rate adjusted so isoproterenol inhibition averaged about 50% at end of 3-hour infusion; for % I (Percent inhibition of heart rate response to isoproterenol): isoproterenol 0.5 μg/kg bolus, 3-hour infusion; for % Inhibition / Time for 50% Rec. / Time for 80% Rec.: Table IV, dose 2.4 / 22.0 ug/kg/min.
Description: The duration of β-blockade was determined in vivo using pentobarbital-anesthetized dogs instrumented for measurement of heart rate using a Beckman cardiotachometer triggered electronically by a phasic aortic blood pressure signal. Both vagus nerves were severed in the cervical region and the animals were mechanically ventilated. The experimental design used employed a 3-hour infusion of test compound. Bolus doses of isoproterenol (0.5 μg/kg) were used to assess the degree of β-blockade and recovery from β-blockade after […] of the infusion. The doses were spaced at 10-minute intervals and were given before, during and following the infusion of test compounds. The infusion rate was adjusted so that at the end of the 3-hour infusion period the degree of isoproterenol inhibition averaged about 50% of control. Following termination of blocker infusion, percent recovery from β-blockade was computed and the time associated with 80% recovery estimated.

[3] = Half-lives of beta blockers in dog liver homogenate (procedure D); assay type: in vitro ADME; details: 33% (w/v) homogenate, 37° C., read-out: T1/2 dog liver homogenate
Description: (§1) The rate of disappearance of a compound is expressed as the half-life (T1/2), which is the time period in which one half of the initial amount of compound tested disappears. In each experiment, 1 ml of a solution containing 50 μg of the test compound was added to 1 ml of whole blood or 1 ml of a 33% (w/v) liver homogenate. The samples were incubated in a Dubnoff shaking metabolic incubator for 2.5, 5.0, 10.0, 20.0, 30.0 and 60.0 minutes at 37° C. At the designated time periods, the test mixtures were removed from the incubator and transferred to a 0° C. ice bath. Acetonitrile (2 ml) was immediately added and the mixtures were mixed to stop enzymatic hydrolysis. Zero time samples were prepared by adding 2 ml of acetonitrile to denature the proteins prior to addition of the test compounds. After centrifugation to sediment denatured proteins, 2 ml of the supernatant was removed and analyzed by high pressure liquid chromatography, using a mobile phase of 60% acetonitrile/40% 0.05 m sodium phosphate buffer (pH 6.6), a U.V. detector and Waters u Bondapak Phenyl column. The half life of each test compound was determined graphically by plotting the decrease in concentrations as a function of time.

[4] = Half-lives of beta blockers in dog whole blood (procedure D); assay type: in vitro ADME; details: 37° C., read-out: T1/2 dog blood
Description: as §1

[5] = Enzymatic hydrolysis of beta blockers by dog aqueous humor (procedure C); assay type: in vitro ADME; details: for remaining at 1 h / remaining at 2 h: 37° C.; for remaining at 1 h: read-out: Percent drug remaining, dog aqueous humor, 1 HR; for remaining at 2 h: read-out: Percent drug remaining, dog aqueous humor, 2 HR; for half-life: approximate value determined by procedure C, read-out: T1/2 dog aqueous humor
Description: (§2) Chemicals--Acetonitrile was "HPLC" grade. Distilled water was used to dissolve the compounds and 0.01N HCl was used to dissolve compounds requiring an acidic pH for dissolution.
(§3) Enzyme Source--Fresh aqueous humor was collected from eyes of dogs using a 23-gauge needle while fresh dog blood was collected into heparinized Vacutainer tubes. Fresh liver was homogenized in 0.9% NaCl using a Potter-Elvehjem Teflon pestle and glass homogenizer making a 25% (W/V) homogenate.
(§4) Incubation Condition--A 0.5 ml aliquot of dog aqueous humor, blood or liver homogenate was incubated with 12.5 μg (0.5 ml) of beta blocker in a Dubnoff shaking metabolic incubator at 37° C. for 60 and 120 min. Denatured tissue controls were prepared by adding 2.0 ml of acetonitrile into 0.5 ml of aqueous humor, blood or liver homogenate to destroy esterase activities prior to addition of the beta blockers. The controls were then incubated at 37° C. for 120 min. After 60 and 120 min, the incubations were terminated by addition of 2 ml of acetonitrile and immediately mixed by a Vortex® to stop esterase activities.
(§5) Sample Processing and Data Analyses--All samples were centrifuged at 4000 RPM for 10 min to sediment denatured proteins. The resultant supernatants were transferred to WISP® vials and analyzed using an HPLC assay developed for beta blockers. The hydrolysis of beta blockers by aqueous humor, blood and liver homogenate was determined by disappearance of the compounds. The extent of enzymatic hydrolysis by each tissue was determined by comparing the amount of each compound (absolute peak area) recovered at each time point to the amount of each compound (absolute peak area) in denatured tissue control and aqueous control samples. The results of these experiments are shown in Tabe III.

[6] = Enzymatic hydrolysis of beta blockers by dog blood (procedure C); assay type: in vitro ADME; details: for remaining at 1 h / remaining at 2 h: dog, blood, 37° C.; for remaining at 1 h: read-out: Percent drug remaining, dog blood, 1 HR; for remaining at 2 h: read-out: Percent drug remaining, dog blood, 2 HR
Description: as §2, §3, §4, §5

[7] = Enzymatic hydrolysis of beta blockers by dog liver homogenate (procedure C); assay type: in vitro ADME; details: for remaining at 1 h / remaining at 2 h: dog, liver homogenate, 37° C.; for remaining at 1 h: read-out: Percent drug remaining, dog liver homogenate, 1 HR; for remaining at 2 h: read-out: Percent drug remaining, dog liver homogenate, 2 HR
Description: as §2, §3, §4, §5

[8] = Table I, guinea pig right atria, isoproterenol agonist, 60-minute incubation, 37° C., read-out: PA2 Rt. Atria (converted)

T1 sequence (H0W3H1 1-470): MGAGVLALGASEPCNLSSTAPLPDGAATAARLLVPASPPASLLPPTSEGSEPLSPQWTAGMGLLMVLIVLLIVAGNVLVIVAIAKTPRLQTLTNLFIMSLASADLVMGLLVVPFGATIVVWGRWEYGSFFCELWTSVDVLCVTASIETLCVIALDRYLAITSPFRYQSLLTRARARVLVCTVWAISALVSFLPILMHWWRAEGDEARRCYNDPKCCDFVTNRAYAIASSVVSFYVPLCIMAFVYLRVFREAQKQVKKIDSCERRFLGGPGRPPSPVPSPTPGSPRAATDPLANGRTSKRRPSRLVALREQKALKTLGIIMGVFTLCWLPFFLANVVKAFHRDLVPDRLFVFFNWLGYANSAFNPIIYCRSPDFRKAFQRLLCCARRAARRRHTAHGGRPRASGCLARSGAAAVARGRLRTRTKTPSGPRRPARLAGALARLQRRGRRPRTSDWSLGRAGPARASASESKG

Structure (SMILES): CC(C)(CNC(N)=O)NCC(O)COC(=O)c1ccccc1F (stereo not shown) [Example X, 3-[1,1-Dimethyl-2-(aminocarbonylamino)]ethylamino-2-hydroxypropyl 2-Fluorobenzoate]
Recovery Time 80% [2]: 21 min
Potency [2]: 0.7 mg/kg/180 min
% I (Percent inhibition of heart rate response to isoproterenol) [2]: 49%
half-life [3]: 2.5 min
half-life [4]: 15 min
remaining at 1 h [5]: 0%
remaining at 2 h [5]: 0%
remaining at 1 h [6]: 0%
remaining at 2 h [6]: 0%
remaining at 1 h [7]: 0%
remaining at 2 h [7]: 0%
Kb [1, 8]: 20 nM

Structure (SMILES): CC(C)(CNC(=O)Cc1ccccc1)NCC(O)COC(=O)c1ccccc1F (stereo not shown) [Example VII, 3-[1,1-Dimethyl-2-(benzylcarbonylamino)]ethylamino-2-hydroxypropyl 2-Fluorobenzoate Hydrochloride]
Recovery Time 50% [2]: 8 min
Recovery Time 80% [2]: 19 min
Potency [2]: 1.8 mg/kg/180 min
% I (Percent inhibition of heart rate response to isoproterenol) [2]: 68%
half-life [3]: 25 min
half-life [4]: 6 min
remaining at 1 h [5]: 69%
remaining at 2 h [5]: 46%
half-life [5]: ~120 min
metabolised at 1 h ([5]; one hour, read-out: hydrolyzed in aqueous humor after one hour): 31%
metabolised at 2 h ([5]; two hours, read-out: hydrolyzed in aqueous humor after two hours): 54%
remaining at 1 h [6]: 0%
remaining at 2 h [6]: 0%
hydrolysis in dog blood ([6]; within 60 minutes): completely hydrolyzed
remaining at 1 h [7]: 0%
remaining at 2 h [7]: 0%
hydrolysis in liver homogenate ([7]; within 60 minutes): completely hydrolyzed
Kb [1, 8]: 39.8 nM

Structure (SMILES): CC(C)(CNC(=O)C1CCCCC1)NCC(O)COC(=O)c1ccccc1F (stereo not shown) [Example VI, 3-[1,1-Dimethyl-2-(cyclohexylcarbonylamino)]ethylamino-2-hydroxypropyl 2-Fluorobenzoate Oxalate]
Recovery Time 50% [2]: 8 ± 3 min
Recovery Time 80% [2]: 12 ± 3 min
Potency [2]: 1.4 mg/kg/180 min
% I (Percent inhibition of heart rate response to isoproterenol) [2]: 61%
Kb [1, 8]: 20 nM

Structure (SMILES): CC(=O)NCC(C)NCC(O)COC(=O)c1ccccc1F (stereo not shown) [III, 3-[1-methyl-2-(methylcarbonylamino)]ethylamino-2-hydroxypropyl 2-Fluorobenzoate]
Kb [1, 8]: > 501 nM

Structure (SMILES): CC(C)NC[C@H](O)COc1cccc2ccccc12 (racemic) [Propanolol, reference compound]
Potency [2]: 0.2 mg/kg/180 min
% I (Percent inhibition of heart rate response to isoproterenol) [2]: 67 ± 6%

Structure (SMILES): CC(C)(CNC(=O)N1CCOCC1)NCC(O)COC(=O)c1ccc(O)c(O)c1 (stereo not shown) [Example XXXV, 3-[2-[1,1-Dimethyl-2-(1-morpholinocarbonylamino)]ethyl]amino-2-hydroxypropyl 3,4-Dihydroxybenzoate Oxalate Monohydrate]
Kb [1, 8]: 6.31 nM

Structure (SMILES): CC(C)(CNC(=O)N1CCOCC1)NCC(O)COC(=O)c1ccco1 (stereo not shown)
% Inhibition [2]: 40%
Time for 50% Rec. [2]: 9 min
Time for 80% Rec. [2]: 30 min
pA2 (atria) ([1]; Table IV): 7.6

Structure (SMILES): CC(C)(CNS(=O)(=O)c1ccccc1)NCC(O)COC(=O)c1ccccc1F (stereo not shown) [VIII, 3-[1,1-Dimethyl-2-(phenylsulfonylamino)]ethylamino-2-hydroxypropyl 2-Fluorobenzoate Oxalate]
% I (Percent inhibition of heart rate response to isoproterenol) [2]: 43% and 55%
half-life [4]: 15 min
remaining at 1 h [6]: 0%
remaining at 2 h [6]: 0%
remaining at 1 h [7]: 0%
remaining at 2 h [7]: 0%
Kb [1, 8]: 100 nM

Structure (SMILES): CC(=O)NCC(C)(C)NCC(O)COC(=O)c1ccccc1F (stereo not shown) [IV, 3-[1,1-Dimethyl-2-(methylcarbonylamino)]ethylamino-2-hydroxypropyl 2-Fluorobenzoate]
Recovery Time 50% [2]: 7 min
Recovery Time 80% [2]: 35 min
Potency [2]: 2.7 mg/kg/180 min
% I (Percent inhibition of heart rate response to isoproterenol) [2]: 61%
half-life [4]: 7.5 min
remaining at 1 h [5]: 87%
remaining at 2 h [5]: 52%
half-life [5]: ~120 min
remaining at 1 h [6]: 0%
remaining at 2 h [6]: 0%
remaining at 1 h [7]: 39%
remaining at 2 h [7]: 23%
Kb [1, 8]: 31.6 nM

Structure (SMILES): CC(C)C(=O)NCCNCC(O)COC(=O)c1ccccc1F (stereo not shown) [Example I, 3-[[2-(Isopropylcarbonylamino)]ethyl]amino-2-hydroxypropyl 2-Fluorobenzoate Hydrochloride]
Kb [1, 8]: 794 nM

Structure (SMILES): CC(C)(CNC(=O)N1CCCCC1)NCC(O)COC(=O)c1ccco1 (stereo not shown)
% Inhibition [2]: 59%
Time for 50% Rec. [2]: 5 min
Time for 80% Rec. [2]: 17 min
Kb ([1]; Table IV, read-out: pA2 (atria) (converted)): 100 nM

Structure (SMILES): CNC(=O)NCC(C)(C)NCC(O)COC(=O)c1ccccc1F (stereo not shown) [Example XI, 3-[1,1-Dimethyl-2-(methylaminocarbonylamino)]ethylamino-2-hydroxypropyl 2-Fluorobenzoate Hemioxalate]
Recovery Time 80% [2]: > 60 min
Potency [2]: 0.2 mg/kg/180 min
% I (Percent inhibition of heart rate response to isoproterenol) [2]: 81% and 71%
Kb [1, 8]: 316 nM

Now from value to compound:

Kb [1, 8]: 39.8 nM
Structure (SMILES): CN(C)S(=O)(=O)NCC(C)(C)NCC(O)COC(=O)c1ccccc1F (stereo not shown) [XXXII, 3-[1,1-Dimethyl-2-(dimethylaminosulfonylamino)]ethylamino-2-hydroxypropyl 2-Fluorobenzoate Oxalate]

Kb [1, 8]: 5.01 nM
Structure (SMILES): CC(C)(CNC(=O)N1CCOCC1)NCC(O)COC(=O)c1ccccc1 (stereo not shown) [XXXIII, 3-[1,1-Dimethyl-2-(1-morpholinocarbonylamino)]ethylamino-2-hydroxypropyl Benzoate Oxalate Hemihydrate]

Kb [1, 8]: 12.6 nM
Structure (SMILES): CC(C)(CNC(=O)N1CCOCC1)NCC(O)COC(=O)c1ccccc1Cl (stereo not shown) [XXXIV, 3-[1,1-Dimethyl-2-(1-morpholinocarbonylamino)]ethylamino-2-hydroxypropyl 2-Chlorobenzoate Oxalate]

Kb [1, 8]: > 1000 nM
Structure (SMILES): O=C(Cc1ccccc1)NCCNCC(O)COC(=O)c1ccccc1F (stereo not shown) [XIII, 3-[2-(Benzylcarbonylamino)ethyl]amino-2-hydroxypropyl 2-Fluorobenzoate Hydrochloride]

Kb [1, 8]: 7.94 nM
Structure (SMILES): CC(C)(CNC(=O)N1CCOCC1)NCC(O)COC(=O)c1ccc(O)cc1 (stereo not shown) [XXXVI, 3-[1,1-Dimethyl-2-(1-morpholinocarbonylamino)]ethylamino-2-hydroxypropyl 4-Hydroxbenzoate Oxalate]

Kb [1, 8]: 20 nM
Structure (SMILES): COCCOC(=O)NCC(C)(C)NCC(O)COC(=O)c1ccccc1F (stereo not shown) [XXXI, 3-[1,1-Dimethyl-2-[2-[(2-methoxy)ethoxycarbonylamino]]ethylamino-2-hydroxypropyl 2-Fluorobenzoate Oxalate]

PA2 Rt. Atria ([1]; Table I, guinea pig right atria, isoproterenol agonist, 60-minute incubation, 37° C.): 8.2
Structure (SMILES): Cc1cc(O)ccc1C(=O)OCC(O)CNC(C)(C)CNC(=O)N1CCOCC1 (stereo not shown) [XXXVII, 3-[1,1-Dimethyl-2-(1-morpholinocarbonylamino)]ethylamino-2-hydroxypropyl 2-Methyl-4-hydroxybenzoate Oxalate]
